Tests used:
Experiment in all cases: whole-cell patch clamp, HEK293
Format in all cases: cell-based
Conditions in all cases: -60 mV, 20-24 °C, pH 7.4; agonist
α1β GlyR (heteromeric) = tested on: T1, α1β GlyR (heteromeric)
T1 construct: gene GLRA1; recombinant heteropentamer in HEK293 cells, excess beta cDNA (1 μg alpha/EGFP plus 4 μg beta)
Source text: whole-cell patch clamp, HEK293 on α1β GlyR (heteromeric)

α1 GlyR (homomeric) = tested on: T2, α1 GlyR (homomeric)
T2 construct: gene GLRA1; recombinant homomeric receptor expressed in HEK293 cells; EGFP co-transfected
Source text: whole-cell patch clamp, HEK293 on α1 GlyR (homomeric)

α2 GlyR (homomeric) = tested on: T3, α2 GlyR (homomeric)
T3 construct: gene GLRA2; recombinant homomeric receptor expressed in HEK293 cells
Source text: whole-cell patch clamp, HEK293 on α2 GlyR (homomeric)

EC50 (α2 GlyR (homomeric)): 86 ± 2 µM
SMILES: NCC(=O)O [Glycine]
